{
  "source": "paper PMC12670317",
  "about": "“Targeted NAT10 Degradation by PROTAC NP1192 Suppresses Hypoxia-Adaptive Glycolysis and Reinvigorates CD8^+ Effector T‑Cell Function for Synergistic Cancer Immunotherapy” (ACS Central Science, 2025)",
  "key": {"[1]": {"system": "CD8+ TILs, M2 macrophages, MDSCs and Treg cells in U14 xenograft tumors", "settings": "Figure 7A", "method": "U14 cells (1 × 10^7 cells per mouse, approximately 100–150 μL of cell suspension) were implanted subcutaneously into the lateral lower dorsal surface of each mouse. The tumors were allowed to grow for 7 days, and the mice were then administered one of five treatments (group 1: U14 cells + DMSO; group 2: U14 cells + Remodelin; group 3: U14 cells + anti-PD-L1 antibody; group 4: U14 cells + NP1192; group 5: U14 cells + anti-PD-L1 antibody + NP1192). Each group of mice was assigned according to the principles of randomization and the blinding method. Tumors were measured every 2 days, and tumor volume was calculated via the following equation: volume = (width)^2 × length/2. Remodelin and NP1192 were injected into the peritumoral area every 2 days at a dose of 25 mg/kg, and the in vivo antimouse PD-L1 antibody (low endotoxin) was injected every 3 days at a dose of 2.5 mg/kg.\nAfter the mice were euthanized, the tumor and peritumoral tissues were analyzed with an immunoflow kit (BioLegend, USA). The antibodies used for immunoflow cytometry included antihuman/mouse antibodies specific for CD11b-BV711, F4/80-AF647, CD206-PE, CD86-BV605, CD4-CD4-FITC IL-17-17-CY7/CY7, CD25-PE, FOXP3-AF647, CD4-BV605, CD45-PE/CY7, CD11b-BV711 and LY-6G/LY-6C-BV421 (BioLegend catalog no. 321239, RRID:AB_2860843). All data analyses were performed via GraphPad Prism 9, and the data are presented as the mean ± SEMs."}, "SiHa cells [2]": {"system": "SiHa cells", "assay": "Colony formation assay in SiHa cells", "type": "cell-based, human", "settings": "pretreated 20 μM 36 h, 2 weeks", "description": "NAT10^± SiHa cells and SiHa cells treated with DMSO, Remodelin or NP1192 for 36 h were seeded into the wells of a 6-well microplate at identical densities of 2000 or 3000 cells per well. The cells were then incubated in the incubator for at least 2 weeks to form colonies. After the incubation period, the cells were fixed with formalin and then stained with crystal violet. The colonies were then counted via a microscope. The number and size of the colonies in the experimental groups were compared."}, "SiHa cells [3]": {"system": "SiHa cells", "assay": "SiHa cell viability IC50 (CCK-8)", "type": "cell-based, human", "settings": "Homo sapiens; parental SiHa cells, 36 h; read-out: IC50, inhibition of SiHa cell viability", "description": "NAT10^± SiHa cells and SiHa cells treated with DMSO, Remodelin or NP1192 for 36 h were seeded into the wells of a 96-well microplate at identical densities of 2000 or 3000 cells per well. After the cells adhered to the well surface, 110 μL of a 1:10 mixture of CCK-8 reagent (Meilunbio, China) and RPMI 1640 medium was added to each well. The microplate was then incubated for another 2 h in the incubator, and the mixture was replaced with an equal volume of medium. A microplate reader (BioTek, US) was used to measure the absorption at a wavelength of 450 nm."}, "[4]": {"system": "Remodelin^Resist SiHa cells", "assay": "IC50 and resistance index in Remodelin-resistant SiHa cells (CCK-8)", "type": "cell-based, human", "description": "We generated Remodelin-resistant (Remodelin^Resist SiHa) and NP1192-resistant (NP1192^Resist SiHa) SiHa CCa cell lines by applying a stepwise dose escalation strategy, as previously described in the literature. To quantitatively assess resistance, we calculated the resistance index for each subline following the established methodologies. Briefly, 3000 cells per well were seeded in 96-well plates and treated with increasing concentrations of Remodelin or NP1192 (0, 10, 50, 100, and 150 μM) for 24 h. Following treatment, 10 μL of CCK-8 reagent was added to each well and incubated for an additional 2 h. Absorbance at 490 nm was measured, and the IC50 values were calculated using GraphPad Prism 9.0. The RI was defined as the ratio of the IC50 in resistant cells to that in parental cells."}, "NAT10": {"target": "T1, NAT10 (Homo sapiens, UniProt Q9H0A0)", "T1 construct": "depletion of total NAT10 protein in SiHa (human) and U14 (murine) CCa cell lines; endogenous in cells; host or cells: SiHa (human cervical cancer cell line)", "T1 sequence (Q9H0A0 1-1025)": "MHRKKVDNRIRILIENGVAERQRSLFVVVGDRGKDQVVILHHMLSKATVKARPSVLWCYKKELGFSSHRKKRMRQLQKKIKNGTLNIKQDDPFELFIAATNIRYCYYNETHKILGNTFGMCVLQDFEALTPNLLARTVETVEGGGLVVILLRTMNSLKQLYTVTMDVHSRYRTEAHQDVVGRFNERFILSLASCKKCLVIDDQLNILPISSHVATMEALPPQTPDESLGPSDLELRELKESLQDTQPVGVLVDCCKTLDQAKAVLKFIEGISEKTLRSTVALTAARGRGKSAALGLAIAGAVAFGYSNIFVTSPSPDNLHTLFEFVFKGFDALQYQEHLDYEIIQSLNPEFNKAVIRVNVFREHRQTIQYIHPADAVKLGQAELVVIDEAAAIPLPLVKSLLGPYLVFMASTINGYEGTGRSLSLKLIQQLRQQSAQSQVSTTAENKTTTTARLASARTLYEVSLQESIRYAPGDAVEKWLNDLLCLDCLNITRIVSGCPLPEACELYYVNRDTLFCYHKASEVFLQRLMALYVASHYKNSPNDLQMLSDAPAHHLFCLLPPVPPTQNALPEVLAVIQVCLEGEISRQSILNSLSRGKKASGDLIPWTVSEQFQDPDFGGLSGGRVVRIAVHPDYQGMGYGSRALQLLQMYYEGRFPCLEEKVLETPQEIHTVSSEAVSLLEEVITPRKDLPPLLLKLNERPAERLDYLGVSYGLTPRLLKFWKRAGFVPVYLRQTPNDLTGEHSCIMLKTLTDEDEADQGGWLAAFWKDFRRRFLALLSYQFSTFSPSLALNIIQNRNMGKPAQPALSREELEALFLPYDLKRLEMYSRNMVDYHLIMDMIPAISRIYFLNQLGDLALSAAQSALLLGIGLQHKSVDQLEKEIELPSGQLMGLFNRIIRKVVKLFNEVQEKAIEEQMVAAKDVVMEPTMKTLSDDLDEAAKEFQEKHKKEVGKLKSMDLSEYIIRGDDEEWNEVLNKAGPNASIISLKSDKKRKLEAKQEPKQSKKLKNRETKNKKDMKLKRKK", "assay": "NAT10 degradation in SiHa cells, Western blot", "type": "cell-based", "settings": "SiHa cells; for effect of cotreatment on NP1192-mediated degradation of NAT10: inhibitor 200 nM for 12 h, then NP1192 for 36 h", "description": "The human CCa cell line SiHa and the normal epithelial foreskin fibroblast line HFF-1 were purchased from the Cell Bank of the Chinese Academy of Sciences. Additionally, murine cervical carcinoma cell line U14 (RRID:CVCL_9U56) was purchased from Boster Company. HFF-1 and U14 cells were cultured in Dulbecco’s modified Eagle’s medium (DMEM) (Gibco, USA) supplemented with 10% heat-inactivated fetal bovine serum (FBS; Gibco, USA), while SiHa cells were incubated in RPMI 1640 medium (Gibco, USA) in a humid atmosphere with 5% CO2 at 37 °C. For hypoxia exposure, the cells were incubated in a sealed culture tank containing 5% CO2 and 0.1% O2 (MGC, Japan) for 36 h.\nRIPA lysis buffer (Beyotime, China) mixed with 1% protease inhibitor (Sigma, US) was added to the cells, and a sample of total protein was obtained and then loaded onto an 8% or 12% polyacrylamide gel. The gel was placed in a buffer solution, and an electric current was applied. The separated proteins were subsequently transferred from the gel onto a PVDF membrane. Next, the membrane was blocked with 5% milk for 1 h to prevent nonspecific antibody binding. The membranes were subsequently incubated with anti-NAT10 (1:1000, Abcam, USA), anti-PD-L1 (1:1000, Proteintech, China), anti-HIF-1α (1:1000, Abmart, China), and anti-β-tubulin (1:1000, Proteintech, China) primary antibodies for 12 h. Afterward, the membrane was sequentially washed with 1× TBST and incubated for 1 h with an antimouse secondary antibody (1:6000, Elabscience, China) or antirabbit secondary antibody (1:6000, Elabscience, China). The target proteins were detected via chemiluminescence with a ChemiDoc MP Imaging System (Bio-Rad, US)."}},
  "note": "Where a SMILES comes first, the peptide text is derived from it. The star is where a group is joined. Cbz = O=C(OCc1ccccc1)*",
  "data": [
    {"smiles": "N#Cc1ccc(-c2csc(NN=C3CCCC3)n2)cc1", "note": "[Remodelin, reference compound]", "values": [
      {"measurement": "Treg gate", "setting": "[1]; CD4+CD25+FOXP3+", "result": 0.84, "unit": "%"},
      {"measurement": "M2 (M2 macrophages gate)", "setting": "[1]; CD11b+F4/80+CD206+", "result": 21.24, "unit": "%"},
      {"measurement": "MDSC gate", "setting": "[1]; CD11b+LY-6G+", "result": 58.69, "unit": "%"},
      {"measurement": "CD8+ (CD8+ TILs gate)", "setting": "[1]; tumors after treatment", "result": 0.56, "unit": "%"},
      {"measurement": "colony formation capacity", "setting": "SiHa cells [2]", "result": "minimal suppressive effects"},
      {"measurement": "IC50", "setting": "SiHa cells [3]", "result": 10.7, "unit": "µM"},
      {"measurement": "resistance index (RI = IC50 resistant/parental SiHa)", "setting": "[4]; 497.3/10.67", "result": 46.60},
      {"measurement": "IC50", "setting": "[4]; Homo sapiens, Remodelin^Resist SiHa cells", "result": 497, "unit": "µM"}
    ]},
    {"smiles": "CO/C1=C\\C(C)=C\\[C@@H](C)[C@@H](O)[C@@H](C)C/C(C)=C/C=C/[C@H](OC)[C@@H]([C@@H](C)[C@@H](O)[C@H](C)[C@@]2(O)C[C@@H](O)[C@H](C)[C@@H](C(C)C)O2)OC1=O", "note": "[bafilomycin A1, reference compound]", "values": [
      {"measurement": "effect of cotreatment on NP1192-mediated degradation of NAT10", "setting": "NAT10", "result": "no discernible effect"}
    ]},
    {"smiles": "N#Cc1ccc(-c2csc(N(CCCCC(=O)NCCCNc3cccc4c3C(=O)N(C3CCC(=O)NC3=O)C4=O)N=C3CCCC3)n2)cc1", "note": "(stereo not drawn) [NP1149]", "values": [
      {"measurement": "NAT10 degradation", "setting": "NAT10; at 36 h, time course Figure 1G", "result": 20, "unit": "%"},
      {"measurement": "NAT10 degradation rate", "setting": "NAT10; panel TP1–32 at the same time and concentration, Figure 1E", "result": 23, "unit": "%"}
    ]},
    {"smiles": "CC(C)C[C@@H](C=O)NC(=O)[C@H](CC(C)C)NC(=O)[C@H](CC(C)C)NC(=O)OCc1ccccc1", "note": "[MG132, reference compound] (Cbz-Leu-Leu-Leu-aldehyde)", "values": [
      {"measurement": "effect of cotreatment on NP1192-mediated degradation of NAT10", "setting": "NAT10", "result": "significantly impeded"}
    ]}
  ]
}
